Experimental data published in ChEMBL document CHEMBL5724914, “Linking interpersonal differences in gut microbiota composition and drug biotransformation activity” (2024).

Legend:
[1] = (§1) The drug is tested on Z-026 corresponding to metagenome with ENA study accession number: PRJEB37062 and ENA sample accession number: ERS12561825 for biotransformation under anaerobic condition. The drug concentrations were measured over 9 timepoints collected between 0 and 24 hours of incubation by liquid-chromatography-coupled mass spectrometry (LC–MS); conditions: 2 µM
[2] = human gut metagenome, 24 h, 2 µM
[3] = (§2) The drug is tested on WLS-350 corresponding to human gut metagenome with ENA study accession number: PRJEB37062 and ENA sample accession number: ERS12561789 for biotransformation under anaerobic condition. The drug concentrations were measured over 9 timepoints collected between 0 and 24 hours of incubation by liquid-chromatography-coupled mass spectrometry (LC–MS); conditions: 2 µM
[4] = human gut metagenome, 24 h, 2 µM; remark: listed apart in the source
[5] = human gut metagenome, 24 h, 2 µM; remark: listed apart in the source
[6] = as §2, with “Z-024” for “WLS-350”, “pig” for “human”, “ERS12561823” for “ERS12561789”; conditions: 2 µM
[7] = as §2, with “Z-020” for “WLS-350”, “rabbit” for “human”, “ERS12561819” for “ERS12561789”; conditions: 2 µM
[8] = human gut metagenome, 24 h, 2 µM; remark: listed apart in the source
[9] = human gut metagenome, 24 h, 2 µM; remark: listed apart in the source
[10] = human gut metagenome, 24 h, 2 µM; remark: listed apart in the source
[11] = as §2, with “WLS-090” for “WLS-350”, “ERS12561753” for “ERS12561789”; conditions: 2 µM
[12] = human gut metagenome, 24 h, 2 µM; remark: listed apart in the source
[13] = as §2, with “WLS-052” for “WLS-350”, “ERS12561747” for “ERS12561789”; conditions: 2 µM
[14] = human gut metagenome, 24 h, 2 µM; remark: listed apart in the source
[15] = as §2, with “WLS-039” for “WLS-350”, “ERS12561746” for “ERS12561789”; conditions: 2 µM
[16] = human gut metagenome, 24 h, 2 µM; remark: listed apart in the source
[17] = as §2, with “Z-002” for “WLS-350”, “rabbit” for “human”, “ERS12561802” for “ERS12561789”; conditions: 2 µM
[18] = as §1, with “Z-005” for “Z-026”, “ERS12561805” for “ERS12561825”; conditions: 2 µM
[19] = human gut metagenome, 24 h, 2 µM; remark: listed apart in the source
[20] = human gut metagenome, 24 h, 2 µM; remark: listed apart in the source
Also: call rule not given here.

Row | Structure (SMILES) | Bacterial Biotransformation [1] | Bacterial Biotransformation [2] | Bacterial Biotransformation [3] | Bacterial Biotransformation [4] | Bacterial Biotransformation [5] | Bacterial Biotransformation [6] | Bacterial Biotransformation [7] | Bacterial Biotransformation [8] | Bacterial Biotransformation [9] | Bacterial Biotransformation [10] | Bacterial Biotransformation [11] | Bacterial Biotransformation [12] | Bacterial Biotransformation [13] | Bacterial Biotransformation [14] | Bacterial Biotransformation [15] | Bacterial Biotransformation [16] | Bacterial Biotransformation [17] | Bacterial Biotransformation [18] | Bacterial Biotransformation [19] | Bacterial Biotransformation [20]
1 | CCOc1ccc2nc(S(N)(=O)=O)sc2c1 [ETHOXZOLAMIDE] | Compound NOT metabolized | Compound NOT metabolized | Compound NOT metabolized | Compound NOT metabolized | Compound NOT metabolized | Compound NOT metabolized | Compound NOT metabolized | Compound NOT metabolized | Compound NOT metabolized | Compound NOT metabolized | Compound metabolized | Compound NOT metabolized | Compound NOT metabolized | Compound NOT metabolized | Compound NOT metabolized | Compound NOT metabolized | Compound NOT metabolized | Compound NOT metabolized | Compound NOT metabolized | Compound metabolized
2 | CC(N)C12CC3CC(CC(C3)C1)C2 (stereo not given) [RIMANTADINE] | Compound NOT metabolized | Compound NOT metabolized | Compound NOT metabolized | Compound NOT metabolized | Compound NOT metabolized | Compound NOT metabolized | Compound NOT metabolized | Compound NOT metabolized | Compound NOT metabolized | Compound NOT metabolized | Compound NOT metabolized | Compound NOT metabolized | Compound NOT metabolized | Compound NOT metabolized | Compound NOT metabolized | Compound NOT metabolized | Compound NOT metabolized | Compound NOT metabolized | Compound NOT metabolized | Compound NOT metabolized
3 | CCOC(=O)C1=C[C@]2(CC)CCCN3CCc4c(n1c1ccccc41)[C@@H]32 [VINPOCETINE] | Compound NOT metabolized | Compound metabolized | Compound metabolized | Compound NOT metabolized | Compound NOT metabolized | Compound metabolized | Compound metabolized | Compound metabolized | Compound metabolized | Compound metabolized | Compound metabolized | Compound metabolized | Compound metabolized | Compound metabolized | Compound NOT metabolized | Compound NOT metabolized | Compound metabolized | Compound NOT metabolized | Compound NOT metabolized | Compound metabolized
4 | Nc1nnc(-c2cccc(Cl)c2Cl)c(N)n1 [LAMOTRIGINE] | Compound NOT metabolized | Compound NOT metabolized | Compound NOT metabolized | Compound NOT metabolized | Compound NOT metabolized | Compound NOT metabolized | Compound NOT metabolized | Compound NOT metabolized | Compound NOT metabolized | Compound NOT metabolized | Compound metabolized | Compound NOT metabolized | Compound NOT metabolized | Compound NOT metabolized | Compound NOT metabolized | Compound NOT metabolized | Compound NOT metabolized | Compound NOT metabolized | Compound NOT metabolized | Compound metabolized
